{
  "source": "PubChem BioAssay (NCI)",
  "note": "Where “and” joins values, the source holds several entries; their conditions need not be identical. Identical values can stand only once.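 48-hour exposure; five concentrations; linearly interpolated endpoints. Abbreviation: GI50, concentration required for 50% inhibition of growth. TGI: concentration producing complete growth inhibition.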",
  "data": [
    {"tested_on": "SK-OV-3 ovarian", "test": "NCI tumour cell line growth inhibition, 48 h", "values": [
      {"molecule": "Oc1[nH]c2ccccc2c1N=Nc1nc(-c2ccc(Br)cc2)cs1", "TGI": "66.3 µM"},
      {"molecule": "N#CC(Cc1ccccc1)N(CCC1=CCCCC1)C(c1ccccc1)c1ccccc1", "note": "(centres undefined)", "TGI": "> 100 µM"},
      {"molecule": "C#CCn1c(=O)c2ccccc2n(CC#C)c1=O", "TGI": "> 10 µM"},
      {"molecule": "O=C1CCC2(c3ccc(Cl)cc3)Nc3ccncc3N12", "note": "(centres undefined)", "TGI": "> 10 µM"},
      {"molecule": "Nc1ncnc2c1[nH]c(=O)n2-c1ccccc1", "TGI": "> 100 µM"},
      {"molecule": "[N-]=[N+]=NC(c1ccccc1)(c1ccccc1)c1ccccc1", "TGI": "> 100 µM"},
      {"molecule": "CC1CN(C)c2ccccc2N=C1NN", "note": "(centres undefined)", "TGI": "> 100 µM"},
      {"molecule": "C(=C(c1ccc(OC2CCCCO2)cc1)c1ccc(OC2CCCCO2)cc1)c1ccccc1", "note": "(centres undefined)", "TGI": "2.64 µM"},
      {"molecule": "CCOP(=O)(OCC)C(F)(F)c1ccc(CC(NC(=O)OC(C)(C)C)C(=O)O)cc1", "note": "(centres undefined)", "TGI": "> 10 µM"},
      {"molecule": "COc1ccc(-c2[nH]c3c4c(nc5c(c24)C(=O)CC(C)(C)C5)CC(C)(C)C3)cc1", "TGI": "> 100 µM"},
      {"molecule": "CCC(=O)NCC1CCCN2CCCCC12", "note": "(centres undefined)", "TGI": "> 100 µM"},
      {"molecule": "NC(=O)C(=Cn1c(=S)[nH]c2ccc([N+](=O)[O-])cc21)C(N)=O", "TGI": "> 100 µM"},
      {"molecule": "Cc1ccc(N(Cc2ccccc2)Cc2ccccc2)cc1", "TGI": "> 100 µM"},
      {"molecule": "S=C(N/N=C(/c1ccccc1)c1ccccn1)N(Cc1ccccn1)Cc1ccccn1", "TGI": "1.66 µM"},
      {"molecule": "Cn1c(=O)c2c(nc3n2CC(C(=O)O)N3)n(C)c1=O", "note": "(centres undefined)", "TGI": "> 100 µM"},
      {"molecule": "Cc1ccc(-c2cc(-c3ccco3)c(C#N)c(=S)n2C2OC(CO)C(O)C(O)C2O)cc1", "note": "(centres undefined)", "GI50": "2.51 µM and 21.9 µM", "TGI": "10.7 µM and > 100 µM"},
      {"molecule": "Cc1oc2c(cc(O)c3cc(O)ccc32)c2cccc1-2", "TGI": "> 100 µM"},
      {"molecule": "NC(N)=Nc1ccc(CC(N)NCC(=O)O)cc1", "note": "(centres undefined)", "TGI": "> 25 µM"},
      {"molecule": "O=C(Cc1ccc(O)c(O)c1)NCc1c[nH]c2ccccc12", "TGI": "> 100 µM"},
      {"molecule": "O=C(NCc1ccccc1)c1n[nH][nH]c1=O", "TGI": "> 100 µM"}
    ]},
    {"tested_on": "SNB-19 CNS", "test": "NCI tumour cell line growth inhibition, 48 h", "units": {"TGI": "µM", "GI50": "µM"}, "values": [
      {"molecule": "CCOC(=O)c1c(CN2CCCC2)n(-c2ccccc2)c2cc(Br)c(O)cc12", "TGI": 33.3},
      {"molecule": "COc1cccc(Nc2nc(-c3cccs3)nc3cc(OC)c(OC)cc23)c1", "TGI": "> 100"},
      {"molecule": "Nn1c(-c2ccccc2)n[nH]c1=O", "TGI": "> 100"},
      {"molecule": "O=C1c2cc3c(cc2-c2c1c1ccc(F)cc1c(=O)n2C[C@H](O)[C@@H](O)[C@H](O)CO)OCO3", "GI50": 0.0513, "TGI": 3.01},
      {"molecule": "Nn1c(Nc2ccc(S(=O)(=O)Nc3ncccn3)cc2)nnc(/C=C/c2c(O)ccc3ccccc23)c1=O", "TGI": "> 100"},
      {"molecule": "Cc1cc(-c2nc3ccc(F)cc3s2)ccc1NC(=O)[C@H](C)N", "TGI": 29.6},
      {"molecule": "C=CC1(CC/C(=C\\[N+](=O)[O-])c2ccc(OC)c(OC)c2)OCC(C)(C)CO1", "TGI": 35.7},
      {"molecule": "Cc1cc(Nc2ccc(S(=O)(=O)O)c3cc(S(=O)(=O)O)cc(S(=O)(=O)O)c23)c2ccccc2n1", "TGI": "> 100"},
      {"molecule": "Cc1cc(C)nc(NS(=O)(=O)c2ccc(NC(=O)c3ccc4nc5ccccc5c(Nc5ccc(S(N)(=O)=O)cc5)c4c3)cc2)n1", "TGI": "> 100"},
      {"molecule": "Nc1c(-c2ccc(Cl)c(Cl)c2)c2ccc([N+](=O)[O-])cc2c(=O)n1-c1nc2ccccc2s1", "TGI": "> 49.4"},
      {"molecule": "CC1(C(=O)O)CCC2(C)CCC3(C)C(=CC(=O)C4C5(C)CCC(O)C(C)(C)C5CCC43C)C2C1", "note": "(centres undefined)", "TGI": "> 100"},
      {"molecule": "NS(=O)(=O)c1nnc(NC(=O)Nc2ccc(Cl)c(Cl)c2)s1", "TGI": 55.8},
      {"molecule": "COC(=O)c1c(C)nc2c1cc(O)c1[nH]c(C)c(C)nc12", "TGI": "> 100"},
      {"molecule": "Cn1c2ccc3cc2c(=S)c2cc(ccc21)OCCOCCOCCOCCOCCOCCO3", "TGI": "> 10"},
      {"molecule": "O=[N+]([O-])c1cc(C=NC23CC4CC(CC(C4)C2)C3)ccc1Cl", "TGI": "> 58.5"},
      {"molecule": "COc1cc(S(=O)(=O)Nc2nc(-c3ccc(N4C(=O)C(CC(=O)O)SC4c4cccs4)cc3)cs2)ccc1Cl", "note": "(centres undefined)", "TGI": "> 100"},
      {"molecule": "CC(=O)N(C(=O)CC(=O)N1N=C(c2ccccc2)C(N=Nc2ccccc2[N+](=O)[O-])C1=O)c1ccc(Cl)cc1", "note": "(centres undefined)", "TGI": "> 10"},
      {"molecule": "Oc1ccccc1CNCc1nc2ccccc2[nH]1", "TGI": "> 100"},
      {"molecule": "COc1ncc(/C=C2\\OC(=O)c3ccccc32)c(OC)n1", "TGI": "> 100"},
      {"molecule": "CC(=O)Nn1c(=S)[nH]c2ccccc21", "TGI": "> 100"},
      {"molecule": "C[C@]12CCC3C4=C(CCC3C1CCC2=O)C(=O)[C@H]1O[C@H]1C4=O", "note": "(some centres undefined)", "TGI": 30},
      {"molecule": "CCCCOC(=O)Nc1ccc(S(=O)(=O)Nc2ccccc2Cl)cc1", "TGI": 49.8},
      {"molecule": "Oc1[nH]c2ccccc2c1N=Nc1nc(-c2ccc(Br)cc2)cs1", "TGI": 40.7},
      {"molecule": "N#CC(Cc1ccccc1)N(CCC1=CCCCC1)C(c1ccccc1)c1ccccc1", "note": "(centres undefined)", "TGI": "> 100"},
      {"molecule": "C#CCn1c(=O)c2ccccc2n(CC#C)c1=O", "TGI": "> 10"},
      {"molecule": "O=C1CCC2(c3ccc(Cl)cc3)Nc3ccncc3N12", "note": "(centres undefined)", "TGI": "> 10"},
      {"molecule": "Nc1ncnc2c1[nH]c(=O)n2-c1ccccc1", "TGI": "> 100"}
    ]}
  ]
}
